The test can be described thus: Unspecified test of effectiveness of AII fragments. Particulars: test not specified.

These results are taken from patent US7745411B2, “Methods for promoting erythropoiesis” (University of Southern California, priority 1998, dated 2010).

“Also recorded” adds a separate entry of the source.

As to His-Pro-Phe (HPF) [AII(6-8)], the “effectiveness (tested, effective or not)” value is “not to be effective”.
Take “Tyr-Ile-His-Pro-Phe (YIHPF; printed: Tyr-Ile-His-Pro-Phe) [AII(4-8)]”: the “effectiveness (tested, effective or not)” value is given as “not to be effective; also recorded: ineffective in repeated tests”.
